From US10730860B2, “Diaminopyrimidine benzenesulfone derivatives and uses thereof” (Dana-Farber Cancer Institute, Inc., priority 2014, dated 2020)

Assays:
BRD4.1 [1] = molecular target: T1, BRD4.1 (Homo sapiens (Human), UniProt O60885); assay: Acetyl-Histone Binding Assay (AlphaScreen); conditions: in vitro percent inhibition of BRD4.1 at 2.5 μM compound concentration; read-out: % INHIB (at 2.5 uM)
Method: Assays were performed with minor modifications from the manufacturer's protocol (PerkinElmer, USA). All reagents were diluted in 50 mM HEPES, 150 mM NaCl, 0.1% w/v BSA, and 0.01% w/v Tween^□ 20 at pH 7.5 and allowed to equilibrate to room temperature prior to addition to plates. After addition of Alpha beads to master solutions, all subsequent steps were performed in low light conditions. […] Addition to wells was performed with either a multichannel pipet (for optimization experiments) or a Biotek EL406 liquid handler. After a 1000-rpm spin-down for 1 minute, 100 nL of the solutions of the compounds of the invention from stock plates were added by pin transfer using a Janus Workstation (PerkinElmer, USA). The streptavidin-coated donor beads (25 μg/ml final) were added as with previous solution in a 2×, 10 μL volume. Following this addition, the plates were sealed with foil to block light exposure and to prevent evaporation. The plates were spun down again at 1000 rpm for 1 minute. Next, the plates were incubated in the room with the plate reader (for temperature equilibration) for 1.5 hour prior to reading the assay.

HL60 cells = assay: Cellular assay, cell viability (ATPlite), BRD4 dependent cell line HL60; type: cell-based; conditions: Homo sapiens, HL-60, 72 h; BRD4 dependent cell line HL60, three days incubation
Method: (§1) The compounds of the invention are also evaluated in the BRD4 dependant cell line for the cellular activity to generate cellular IC50 values.
(§2) Cells (e.g., BRD4 dependant cells) were counted and adjusted to 60,000 cells/mL. Using a Biotek EL406, 50 μL of the cells in media were distributed into 384 well white plates from Thermo. Immediately after plating, compounds of the invention in DMSO were distributed to plates. For large plate sets, cells were returned to a 37° C. incubator while not in use. The compounds were added to plates using a 100 nL 384 well pin transfer manifold on a Janus workstation. Stocks were arrayed in 10 point quadruplicate dose response in DMSO stock in 384-well Greiner compound plates. After addition of the compounds, plates were incubated for three days in a 37° C. incubator. Cell viability was read out using ATPlite from Perkin Elmer. Plates were removed from the incubator and brought to room temperature prior to use. Lyophilized powder was resuspended in lysis buffer and diluted 1:2 with DI water. 25 μL of this solution was added to each well using the Biotek liquid handler. Plates were sealed with adherent aluminum seals prior to vortexing and spinning down at 1000 g for 1 minute. Plates were incubated for 15 minutes at room temperature before signal was read on an Envision Plate Reader.

797 cells = assay: Cellular assay, cell viability (ATPlite), BRD4 dependent cell line 797; type: cell-based; conditions: 72 h; BRD4 dependent cell line 797, three days incubation
Method: as §1, §2

BRD4.1 [2] = molecular target: T1, BRD4.1; assay: Isothermal Titration Calorimetery (ITC); type: binding; conditions: BRD4.1, 25° C.
Method: Isothermal Titration Calorimetery
ITC was performed using a ITC200 microcalorimeter from GE™ (Northampton, Mass.). All experiments were carried out at 25° C. while stirring at 1000 rpm, in ITC buffer (50 mM HEPES pH 7.4 at 25° C., 150 mM NaCl). The microsyringe was loaded with a solution of the protein sample (225 μM, in ITC buffer). […] All titrations were conducted using an initial injection of 0.2 μl, followed by 19 identical injections of 2 μl with a duration of 5 sec (per injection) and a spacing of 90 sec between injections. The heat of dilution was determined by independent titrations (protein into buffer) and was subtracted from the experimental data. […] The collected data were implicated in the MicroCal™ Origin software supplied with the instrument to yield enthalpies of binding (ΔH) and binding constants (KB) as previously described by Wiseman and coworkers. Thermodynamic parameters were calculated (ΔG=ΔH−TΔS=−RT ln KB, where ΔG, ΔH and ΔS are the changes in free energy, enthalpy and entropy of binding respectively). A single binding site model was employed.

SMILES | inhibition at 2.5 µM (BRD4.1 [1]) | EC50 (HL60 cells) | EC50 (797 cells) | Kd (BRD4.1 [2])
CCN1CCN(C(=O)Cc2ccc(Nc3ncc(F)c(Nc4ccc(C(=O)Nc5ccccc5Cl)cc4)n3)cc2)CC1 | 56.1% |  |  | 
Cc1cnc(Nc2ccc(OCCN3CCCC3)cc2)nc1Nc1cccc(S(=O)(=O)NC(C)(C)C)c1 | 36% |  |  | 
CC(C)(C)NS(=O)(=O)c1cccc(Nc2nc(Nc3ccc(OCCN4CCCC4)cc3)ncc2N)c1 |  | 2070 nM | 2400 nM | 483 nM
